According to ChEMBL document CHEMBL1140687, “Quinazoline derivatives as MC-I inhibitors: evaluation of myocardial uptake using Positron Emission Tomography in rat and non-human primate” (Bioorg Med Chem Lett, 2007):

What was measured:
[1] = Inhibition of MC1 by NADH-DB reductase assay; set-up: species or system Homo sapiens
[2] = system: Liver; assay: Biodistribution in Sprague-Dawley rat liver at 15 uCi, iv after 120 mins; format: ADME, organism-based; conditions: in vivo, 2 h
[3] = system: Lung; assay: Biodistribution in Sprague-Dawley rat lung at 15 uCi, iv after 120 mins; format: ADME, organism-based; conditions: in vivo, 2 h
[4] = system: Nucleic Acid; assay: Ratio of drug uptake in heart to femur of Sprague-Dawley rat at 60 mins; format: ADME; conditions: in vivo, 1 h
[5] = system: Muscle tissue; assay: Biodistribution in Sprague-Dawley rat muscle at 15 uCi, iv after 30 mins; format: ADME, organism-based; conditions: in vivo, 0.5 h
[6] = system: Blood; assay: Biodistribution in Sprague-Dawley rat blood at 15 uCi, iv after 120 mins; format: ADME, organism-based; conditions: in vivo, 2 h
[7] = system: Heart; assay: Biodistribution in Sprague-Dawley rat heart at 15 uCi, iv after 120 mins; format: ADME, organism-based; conditions: in vivo, 2 h
[8] = system: Rattus norvegicus; assay: Biodistribution in Sprague-Dawley rat urine at 15 uCi, iv after 120 mins; format: ADME, organism-based; conditions: in vivo, 2 h
[9] = system: Kidney; assay: Biodistribution in Sprague-Dawley rat kidney at 15 uCi, iv after 30 mins; format: ADME, organism-based; conditions: in vivo, 0.5 h
[10] = system: Nucleic Acid; assay: Ratio of drug uptake in heart to liver of Sprague-Dawley rat at 60 mins; format: ADME; conditions: in vivo, 1 h
[11] = system: Kidney; assay: Biodistribution in Sprague-Dawley rat kidney at 15 uCi, iv after 120 mins; format: ADME, organism-based; conditions: in vivo, 2 h
[12] = system: Lung; assay: Biodistribution in Sprague-Dawley rat lung at 15 uCi, iv after 30 mins; format: ADME, organism-based; conditions: in vivo, 0.5 h
[13] = system: Femur; assay: Biodistribution in Sprague-Dawley rat femur at 15 uCi, iv after 120 mins; format: ADME, organism-based; conditions: in vivo, 2 h
[14] = system: Spleen; assay: Biodistribution in Sprague-Dawley rat spleen at 15 uCi, iv after 120 mins; format: ADME, organism-based; conditions: in vivo, 2 h
[15] = system: Heart; assay: Biodistribution in Sprague-Dawley rat heart at 15 uCi, iv after 30 mins; format: ADME, organism-based; conditions: in vivo, 0.5 h
[16] = system: Nucleic Acid; assay: Ratio of drug uptake in heart to lung of Sprague-Dawley rat at 60 mins; format: ADME; conditions: in vivo, 1 h
[17] = system: Muscle tissue; assay: Biodistribution in Sprague-Dawley rat muscle at 15 uCi, iv after 120 mins; format: ADME, organism-based; conditions: in vivo, 2 h
[18] = system: Nucleic Acid; assay: Ratio of drug uptake in heart to lung of Sprague-Dawley rat at 30 mins; format: ADME; conditions: in vivo, 0.5 h
[19] = system: Femur; assay: Biodistribution in Sprague-Dawley rat femur at 15 uCi, iv after 30 mins; format: ADME, organism-based; conditions: in vivo, 0.5 h
[20] = system: Liver; assay: Biodistribution in Sprague-Dawley rat liver at 15 uCi, iv after 30 mins; format: ADME, organism-based; conditions: in vivo, 0.5 h
[21] = system: Nucleic Acid; assay: Ratio of drug uptake in heart to liver of Sprague-Dawley rat at 30 mins; format: ADME; conditions: in vivo, 0.5 h
[22] = system: Spleen; assay: Biodistribution in Sprague-Dawley rat spleen at 15 uCi, iv after 30 mins; format: ADME, organism-based; conditions: in vivo, 0.5 h
[23] = system: Blood; assay: Biodistribution in Sprague-Dawley rat blood at 15 uCi, iv after 30 mins; format: ADME, organism-based; conditions: in vivo, 0.5 h
[24] = system: Rattus norvegicus; assay: Biodistribution in Sprague-Dawley rat urine at 15 uCi, iv after 30 mins; format: ADME, organism-based; conditions: in vivo, 0.5 h

Question: With `CC(C)(C)c1ccc(CCOc2ncnc3ccccc23)cc1` [FENAZAQUIN] as the compound, how does the IC50 [1] read?
Answer: 4 nM

Question: Which IC50 [1] does the source give for `CCCC(F)c1ccc(CCOc2ncnc3ccccc23)cc1` (configuration not stated) here?
Answer: 19.3 nM

Question: With `CC(C)(C)c1ccc(CNc2ncnc3ccccc23)cc1` as the compound, how does the IC50 [1] read?
Answer: 241 nM

Question: For `CCCCc1ccc(CCOc2ncnc3ccccc23)cc1`, which IC50 [1] is on record?
Answer: 37.5 nM

Question: With `CCCCc1ccc(COc2ncnc3ccccc23)cc1` as the compound, how does the IC50 [1] read?
Answer: 1000 nM

Question: Which IC50 [1] does the source give for `CCCC(O)c1ccc(CCOc2ncnc3ccccc23)cc1` (configuration not stated) here?
Answer: 21.7 nM

Question: Which IC50 [1] does the source give for `OCCCCc1ccc(COc2ncnc3ccccc23)cc1` here?
Answer: 414 nM

Question: Which IC50 [1] does the source give for `FCCCCCc1ccc(CCOc2ncnc3ccccc23)cc1` here?
Answer: 11.3 nM

Question: For `OCCCCc1ccc(CCOc2ncnc3ccccc23)cc1`, which IC50 [1] is on record?
Answer: 22.4 nM

Question: With `[18F]CCCCCc1ccc(CCOc2ncnc3ccccc23)cc1` as the compound, how does the Drug uptake [2] read?
Answer: 0.44 % ID/g

Question: And the Drug uptake [3]?
Answer: 0.11 % ID/g

Question: What about the Ratio [4] of the same compound?
Answer: 3.6

Question: And the Drug uptake [5]?
Answer: 0.08 % ID/g

Question: What about the Drug uptake [6] of the same compound?
Answer: 0.06 % ID/g

Question: And the Drug uptake [7]?
Answer: 2.5 % ID/g

Question: And the Drug uptake [8]?
Answer: 4.44 % ID/g

Question: And the Drug uptake [9]?
Answer: 1.99 % ID/g

Question: And the Ratio [10]?
Answer: 5.7

Question: What about the Drug uptake [11] of the same compound?
Answer: 0.68 % ID/g

Question: What about the Drug uptake [12] of the same compound?
Answer: 0.28 % ID/g

Question: What about the Drug uptake [13] of the same compound?
Answer: 0.65 % ID/g

Question: What about the Drug uptake [14] of the same compound?
Answer: 0.07 % ID/g

Question: And the Drug uptake [15]?
Answer: 3.22 % ID/g

Question: And the Ratio [16]?
Answer: 2.5

Question: What about the Drug uptake [17] of the same compound?
Answer: 0.12 % ID/g

Question: And the Ratio [18]?
Answer: 11.3

Question: What about the Drug uptake [19] of the same compound?
Answer: 0.19 % ID/g

Question: What about the Drug uptake [20] of the same compound?
Answer: 1.29 % ID/g

Question: What about the Ratio [21] of the same compound?
Answer: 23

Question: And the Drug uptake [22]?
Answer: 0.19 % ID/g

Question: And the Drug uptake [23]?
Answer: 0.08 % ID/g

Question: And the Drug uptake [24]?
Answer: 0.5 % ID/g
